Laboratory results reported in patent publication US20080161232A1, “C5a Receptor Antagonist” (JERINI AG, priority 2005, published 2008).
Starred links: 1 amine or outer side, 2 acyl side, 3 side chain; linkers in the order of their positions; H or OH if unused. Positions of bridges follow the written chain, without caps; N, C: chain ends. Non-standard residues stand in square brackets, D forms with d. Residues, ends and D or L forms follow the SMILES beside them. ξ: configuration not given here. *: point of attachment. ξTrp(6-F) = NC(Cc1c[nH]c2cc(F)ccc12)C(=O)O; Phe(3-Cl) = N[C@@H](Cc1cccc(Cl)c1)C(=O)O; Dip = N[C@H](C(=O)O)C(c1ccccc1)c1ccccc1; Phe(3-F) = N[C@@H](Cc1cccc(F)c1)C(=O)O; Phe(4-F) = N[C@@H](Cc1ccc(F)cc1)C(=O)O; X4 = O=C([C@H](CNC1=NCCN1)N[*:1])[*:2]; Bta = N[C@@H](Cc1csc2ccccc12)C(=O)O; d(hLeu) = CC(C)CC[C@@H](N)C(=O)O; 3Pal = N[C@@H](Cc1cccnc1)C(=O)O; Cha = N[C@@H](CC1CCCCC1)C(=O)O; Cit = NC(=O)NCCC[C@H](N)C(=O)O; dCha = N[C@H](CC1CCCCC1)C(=O)O; Aic = NC1(C(=O)O)Cc2ccccc2C1; X14 = NC(=O)N(Cc1ccccc1)N*; Orn = NCCC[C@H](N)C(=O)O; Nme = COCCNCC(=O)O

These molecules were tested against T1, human C5aR(CD88) (Homo sapiens, UniProt P21730) (assay: Determination of the IC50 value in an enzyme release assay (functional assay, antagonistic activity)). Conditions: activity (group), antagonistic activity; IC50 group in enzyme release assay, RBL cells expressing human C5aR(CD88).
T1 construct: expressed in transfected cells; host or cells: rat basophilic leukemia cells (RBL)
T1 sequence (P21730 1-350): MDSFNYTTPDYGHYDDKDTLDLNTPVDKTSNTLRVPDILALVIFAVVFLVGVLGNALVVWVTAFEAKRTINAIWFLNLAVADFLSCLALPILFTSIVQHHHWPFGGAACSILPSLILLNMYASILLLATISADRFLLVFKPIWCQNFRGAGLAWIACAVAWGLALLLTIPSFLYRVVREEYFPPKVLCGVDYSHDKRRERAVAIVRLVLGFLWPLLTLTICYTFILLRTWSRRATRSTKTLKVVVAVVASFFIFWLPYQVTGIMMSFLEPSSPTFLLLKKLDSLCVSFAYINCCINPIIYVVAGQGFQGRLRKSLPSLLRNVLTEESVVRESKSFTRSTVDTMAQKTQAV
Assay type: cell-based

Row | Compound | IC50
1 | CC(=O)N[C@@H](Cc1ccccc1)C(=O)N[C@@H](CCCN)C(=O)N1CCC[C@H]1C(=O)N[C@@H](CC1CCCCC1)C(=O)N[C@@H](Cc1csc2ccccc12)C(=O)NN(Cc1ccccc1)C(N)=O [Compound 257, Ac-Phe-Orn-Pro-Cha-Bta-NH-NBn-CO—NH2] (Ac-F[Orn]P[Cha][Bta]-X14) | 0.05 to 0.2 µM

Same assay, conditions: antagonistic activity; IC50 group in enzyme release assay, RBL cells expressing human C5aR(CD88); read-out: activity (group)

Row | Compound | IC50
2 | CC(C)CC[C@H]1NC(=O)[C@@H]2CCCN2C(=O)[C@@H](NC(=O)[C@@H](N)Cc2ccccc2)CCCNC(=O)[C@H](Cc2ccccc2)NC(=O)[C@H](Cc2ccc(F)cc2)NC1=O [Compound 380, H-Phe-[Orn-Pro-hle-Pff-Phe]] (H-F[Orn]P[d(hLeu)][Phe(4-F)]F; lactam 2-C) | 0.02 to 0.05 µM
3 | CC(=O)N[C@@H](Cc1ccccc1)C(=O)N[C@H]1CCCNC(=O)[C@H](Cc2ccccc2)NC(=O)[C@H](Cc2ccc(F)cc2)NC(=O)[C@@H](CC2CCCCC2)NC(=O)[C@@H]2CCCN2C1=O [Compound 187, Ac-Phe-[Orn-Pro-cha-Pff-Phe]] (Ac-F[Orn]P[dCha][Phe(4-F)]F; lactam 2-C) | 0.05 to 0.2 µM
4 | CC(=O)N[C@@H](Cc1ccccc1)C(=O)N[C@@H](CCCN)C(=O)N1CCC[C@H]1C(=O)N[C@H](CCC(C)C)C(=O)N[C@@H](Cc1csc2ccccc12)C(=O)NC1(C(N)=O)Cc2ccccc2C1 [Compound 273, Ac-Phe-Orn-Pro-hle-Bta-Aic-NH2] (Ac-F[Orn]P[d(hLeu)][Bta][Aic]-NH2) | 0.05 to 0.2 µM
5 | CC(=O)N[C@@H](Cc1ccccc1)C(=O)N[C@@H](CNC1=NCCN1)C(=O)N1CCC[C@H]1C(=O)N[C@H](CC1CCCCC1)C(=O)N[C@@H](Cc1csc2ccccc12)C(=O)N[C@@H](Cc1ccccc1)C(N)=O [Compound 222, Ac-Phe-Fco-Pro-cha-Bta-Phe-NH2] (Ac-F[X4]P[dCha][Bta]F-NH2) | 0.05 to 0.2 µM
6 | COCCN(CC(=O)N[C@H](CC1CCCCC1)C(=O)N[C@@H](Cc1csc2ccccc12)C(=O)N[C@@H](Cc1ccccc1)C(N)=O)C(=O)[C@H](CCCN)NC(=O)[C@H](Cc1ccccc1)NC(C)=O [Compound 238, Ac-Phe-Orn-G25-cha-Bta-Phe-NH2] (Ac-F[Orn][Nme][dCha][Bta]F-NH2) | 0.05 to 0.2 µM
7 | CC(=O)N[C@@H](Cc1ccccc1)C(=O)N[C@@H](CCCNC(=N)N)C(=O)N1CCC[C@H]1C(=O)N[C@H](CCC(C)C)C(=O)N[C@@H](Cc1cccc(Cl)c1)C(=O)N[C@@H](Cc1ccccc1)C(N)=O [Compound 208, Ac-Phe-Arg-Pro-hle-Mcf-Phe-NH2] (Ac-FRP[d(hLeu)][Phe(3-Cl)]F-NH2) | 0.05 to 0.2 µM
8 | CC(C)CC[C@@H](NC(=O)[C@@H]1CCCN1C(=O)[C@H](CCCNC(N)=O)NC(=O)[C@@H](N)Cc1ccccc1)C(=O)N[C@@H](Cc1csc2ccccc12)C(=O)N[C@@H](Cc1ccccc1)C(N)=O [Compound 391, H-Phe-Cit-Pro-hle-Bta-Phe-NH2] (H-F[Cit]P[d(hLeu)][Bta]F-NH2) | 0.05 to 0.2 µM
9 | CC(=O)N[C@@H](Cc1ccccc1)C(=O)N[C@@H](CCCN)C(=O)N1CCC[C@H]1C(=O)N[C@H](CCC(C)C)C(=O)NC(Cc1c[nH]c2cc(F)ccc12)C(=O)N[C@@H](Cc1ccccc1)C(N)=O (stereo partly drawn) [Compound 269, Ac-Phe-Orn-Pro-hle-6FW-Phe-NH2] (Ac-F[Orn]P[d(hLeu)][ξTrp(6-F)]F-NH2) | 0.05 to 0.2 µM
10 | CC(=O)N[C@@H](Cc1cccc(F)c1)C(=O)N[C@@H](CCCN)C(=O)N1CCC[C@H]1C(=O)N[C@H](CCC(C)C)C(=O)N[C@@H](Cc1cccc(Cl)c1)C(=O)N[C@@H](Cc1cccc(F)c1)C(N)=O [Compound 163, Ac-Mff-Orn-Pro-hle-Mcf-Mff-NH2] (Ac-[Phe(3-F)][Orn]P[d(hLeu)][Phe(3-Cl)][Phe(3-F)]-NH2) | 0.05 to 0.2 µM
11 | CC(=O)N[C@H](C(=O)N[C@@H](CCCN)C(=O)N1CCC[C@H]1C(=O)N[C@H](CC1CCCCC1)C(=O)N[C@@H](Cc1c[nH]c2ccccc12)C(=O)N[C@@H](Cc1ccccc1)C(N)=O)C(c1ccccc1)c1ccccc1 [Compound 78, Ac-Ebw-Orn-Pro-cha-Trp-Phe-NH2] (Ac-[Dip][Orn]P[dCha]WF-NH2) | 0.05 to 0.2 µM
12 | CCCC[C@@H]1NC(=O)[C@H](Cc2c[nH]c3ccccc23)NC(=O)[C@@H](CC2CCCCC2)NC(=O)[C@@H]2CCCN2C(=O)[C@@H](NCc2ccccc2)CCCNC1=O [Compound 56, Ph-CH2-[Orn-Pro-cha-Trp-Nle]] | 0.02 to 0.05 µM
13 | CC(=O)N[C@@H](Cc1ccccc1)C(=O)N[C@@H](Cc1cccnc1)C(=O)N1CCC[C@H]1C(=O)N[C@H](CC1CCCCC1)C(=O)N[C@@H](Cc1csc2ccccc12)C(=O)N[C@@H](Cc1ccccc1)C(N)=O [Compound 124, Ac-Phe-Mpa-Pro-cha-Bta-Phe-NH2] (Ac-F[3Pal]P[dCha][Bta]F-NH2) | 0.05 to 0.2 µM
